Laboratory results from the CheMixHub ionic liquid set.
± gives the uncertainty stated by the source.

Experiment: xn = mol fraction of the nth substance listed
Details: 101 kPa

CCCCCCCCCCCCCC[n+]1ccccc1.O=C([O-])C(O)c1ccccc1 + CC(C)[C@H](N)C(=O)O + O
electrical conductivity [S/m]
Details	293.15 K	298.15 K	303.15 K	308.15 K	313.15 K
x1 = 6.19e-06, x2 = 0.001799	0.00217 ± 0.00055	0.00247 ± 0.00062	0.00278 ± 0.00069	0.00312 ± 0.00077	0.00346 ± 0.00085
x1 = 6.85e-06, x2 = 0	0.00248 ± 0.00074	0.00278 ± 0.00083	0.00309 ± 0.00092	0.0034 ± 0.001	0.0037 ± 0.0011
x1 = 8.87e-06, x2 = 0.0009002	0.00274 ± 0.00063	0.00311 ± 0.00071	0.00349 ± 0.00079	0.00388 ± 0.00088	0.00427 ± 0.00097
x1 = 1.146e-05, x2 = 0.001799	0.00366 ± 0.00071	0.00413 ± 0.0008	0.00464 ± 0.0009	0.0052 ± 0.001	0.0057 ± 0.0011
x1 = 1.424e-05, x2 = 0	0.00472 ± 0.00079	0.00529 ± 0.00089	0.00587 ± 0.00099	0.0065 ± 0.0011	0.0071 ± 0.0012
x1 = 1.485e-05, x2 = 0.0009002	0.00439 ± 0.00076	0.00496 ± 0.00085	0.00555 ± 0.00096	0.0061 ± 0.0011	0.0068 ± 0.0012
x1 = 1.674e-05, x2 = 0.001799	0.0051 ± 0.00079	0.00578 ± 0.00089	0.0065 ± 0.001	0.0072 ± 0.0011	0.008 ± 0.0012
x1 = 1.847e-05, x2 = 0.0009002	0.00537 ± 0.00079	0.00606 ± 0.00088	0.0068 ± 0.001	0.0075 ± 0.0011	0.0083 ± 0.0012
x1 = 2.126e-05, x2 = 0	0.00671 ± 0.0009	0.0076 ± 0.001	0.0084 ± 0.0011	0.0093 ± 0.0013	0.0101 ± 0.0014
x1 = 2.202e-05, x2 = 0.001799	0.00655 ± 0.00089	0.0074 ± 0.001	0.0083 ± 0.0011	0.0093 ± 0.0013	0.0102 ± 0.0014
x1 = 2.264e-05, x2 = 0.0009002	0.00641 ± 0.00083	0.0072 ± 0.00093	0.0081 ± 0.001	0.009 ± 0.0012	0.0099 ± 0.0013
x1 = 2.693e-05, x2 = 0.001799	0.00788 ± 0.00098	0.0089 ± 0.0011	0.01 ± 0.0012	0.0111 ± 0.0014	0.0123 ± 0.0015
x1 = 2.698e-05, x2 = 0.0009002	0.00756 ± 0.00096	0.0086 ± 0.0011	0.0096 ± 0.0012	0.0106 ± 0.0014	0.0117 ± 0.0015
x1 = 2.811e-05, x2 = 0	0.0086 ± 0.001	0.0097 ± 0.0012	0.0108 ± 0.0013	0.0122 ± 0.0015	0.0131 ± 0.0016
x1 = 3.187e-05, x2 = 0.0009002	0.0089 ± 0.001	0.01 ± 0.0012	0.0113 ± 0.0013	0.0125 ± 0.0015	0.0138 ± 0.0016
x1 = 3.257e-05, x2 = 0.001799	0.0094 ± 0.0011	0.0106 ± 0.0012	0.0119 ± 0.0014	0.0132 ± 0.0015	0.0146 ± 0.0017
x1 = 3.46e-05, x2 = 0	0.0103 ± 0.0011	0.0116 ± 0.0013	0.0129 ± 0.0014	0.0145 ± 0.0016	0.0157 ± 0.0018
x1 = 3.876e-05, x2 = 0.001799	0.0107 ± 0.0012	0.0121 ± 0.0013	0.0136 ± 0.0015	0.0152 ± 0.0016	0.0169 ± 0.0018
x1 = 3.93e-05, x2 = 0.0009001	0.0105 ± 0.0011	0.0119 ± 0.0013	0.0133 ± 0.0014	0.0148 ± 0.0016	0.0164 ± 0.0018
x1 = 4.108e-05, x2 = 0	0.0117 ± 0.0012	0.0131 ± 0.0014	0.0146 ± 0.0015	0.0161 ± 0.0017	0.0179 ± 0.0019
x1 = 4.549e-05, x2 = 0.001799	0.0119 ± 0.0012	0.0134 ± 0.0014	0.0151 ± 0.0016	0.0169 ± 0.0018	0.0188 ± 0.0019
x1 = 4.618e-05, x2 = 0.0009001	0.0116 ± 0.0012	0.0131 ± 0.0014	0.0147 ± 0.0015	0.0165 ± 0.0017	0.0183 ± 0.0019
x1 = 4.811e-05, x2 = 0	0.0129 ± 0.0013	0.0144 ± 0.0015	0.0161 ± 0.0017	0.0179 ± 0.0019	0.0198 ± 0.0021
x1 = 5.295e-05, x2 = 0.001799	0.0129 ± 0.0013	0.0146 ± 0.0015	0.0164 ± 0.0017	0.0183 ± 0.0019	0.0203 ± 0.0021
x1 = 5.324e-05, x2 = 0.0009001	0.0126 ± 0.0013	0.0142 ± 0.0014	0.0159 ± 0.0016	0.0178 ± 0.0018	0.0198 ± 0.002
x1 = 5.388e-05, x2 = 0	0.0137 ± 0.0014	0.0154 ± 0.0016	0.0172 ± 0.0018	0.0191 ± 0.002	0.0211 ± 0.0022
x1 = 5.982e-05, x2 = 0	0.0145 ± 0.0015	0.0163 ± 0.0017	0.0182 ± 0.0019	0.0202 ± 0.0021	0.0224 ± 0.0023
x1 = 6.012e-05, x2 = 0.0009001	0.0134 ± 0.0014	0.015 ± 0.0015	0.017 ± 0.0017	0.0191 ± 0.002	0.0212 ± 0.0022
x1 = 6.078e-05, x2 = 0.001799	0.014 ± 0.0014	0.0158 ± 0.0016	0.0177 ± 0.0018	0.0198 ± 0.002	0.0221 ± 0.0023
x1 = 6.559e-05, x2 = 0	0.0153 ± 0.0016	0.0172 ± 0.0018	0.0192 ± 0.0019	0.0213 ± 0.0022	0.0236 ± 0.0024
x1 = 6.609e-05, x2 = 0.0009001	0.0142 ± 0.0014	0.016 ± 0.0016	0.018 ± 0.0018	0.0202 ± 0.0021	0.0224 ± 0.0023
x1 = 6.788e-05, x2 = 0.001799	0.015 ± 0.0015	0.0169 ± 0.0017	0.0189 ± 0.0019	0.0211 ± 0.0022	0.0236 ± 0.0024
x1 = 7.081e-05, x2 = 0	0.016 ± 0.0016	0.018 ± 0.0018	0.02 ± 0.002	0.0223 ± 0.0023	0.0246 ± 0.0025
x1 = 7.153e-05, x2 = 0.0009001	0.0149 ± 0.0015	0.0168 ± 0.0017	0.0189 ± 0.0019	0.0212 ± 0.0022	0.0236 ± 0.0024
x1 = 7.424e-05, x2 = 0.001799	0.0158 ± 0.0016	0.0179 ± 0.0018	0.0201 ± 0.002	0.0224 ± 0.0023	0.0249 ± 0.0025
x1 = 7.604e-05, x2 = 0	0.0167 ± 0.0017	0.0187 ± 0.0019	0.0209 ± 0.0021	0.0232 ± 0.0024	0.0258 ± 0.0026
x1 = 7.714e-05, x2 = 0.0009001	0.0156 ± 0.0016	0.0176 ± 0.0018	0.0198 ± 0.002	0.0223 ± 0.0023	0.0248 ± 0.0026
x1 = 8.025e-05, x2 = 0.001799	0.0166 ± 0.0017	0.0188 ± 0.0019	0.0211 ± 0.0021	0.0236 ± 0.0024	0.0262 ± 0.0027
x1 = 8.072e-05, x2 = 0	0.0173 ± 0.0018	0.0194 ± 0.002	0.0217 ± 0.0022	0.0241 ± 0.0024	0.0266 ± 0.0027
x1 = 8.257e-05, x2 = 0.0009001	0.0163 ± 0.0017	0.0185 ± 0.0019	0.0208 ± 0.0021	–	–
